The values below come from patent US10463735B2, “Method and apparatus for adjusting corneal curvature through digital corneal crosslinking” (ZHEJIANG UNIVERSITY, priority 2016, dated 2019).

The test system of this experiment is cornea. As to the kind of experiment: Digital corneal crosslinking: photoinitiator solution dropped on the cornea, then selective local irradiation through a digital micromirror device. The class given is in vivo. The protocol: A digital corneal crosslinking method to adjust the corneal curvature wherein a composition comprising a photoinitiator compound is administered to the corneal stromal of the subject, and the corneal is selectively and locally irradiated by utilizing digital micromirror device (DMD) controlled by a computer, whereby the corneal curvature is altered.
The epithelial tissue of an area of 7 mm diameter in the middle of the cornea was removed after superficial anesthesia. A dextran solution of 200 g/L with 1 g/L riboflavin was dropped to corneal surface in batches. The location of the riboflavin diffused into the corneal surface was observed by cobalt blue light of a slit lamp. Digital corneal crosslinking device was used to selectively irradiate the local area of the cornea. The light's wavelength is 365 nm, the irradiation area is shown in FIG. 2, the light power is 1.2 mW/cm^2, irradiation time is 5 minutes.
During irradiation process, a photoinitiator solution and superficial anesthesia were used to wash the corneal surface in phases. Antibiotic eye formulations were applied to the eye and corneal contact lens were used until the corneal epithelium was healed.
The epithelial tissue of an area of 7 mm diameter in the middle of the cornea was removed after superficial anesthesia. A dextran solution of 200 g/L with 1 g/L riboflavin sodium phosphate was dropped to corneal surface in batches. The location of the riboflavin diffused into the corneal surface was observed by cobalt blue light of a slit lamp. Digital corneal crosslinking device was used to selectively irradiate the local area of the cornea. The light's wavelength is 365 nm, the irradiation area is the same like that in example 1, the light power is 1.2 mW/cm^2, irradiation time is 5 minutes.
The epithelial tissue of an area of 5-9 mm diameter in the middle of the cornea was removed after superficial anesthesia. A dextran solution of 200 g/L with 1 g/L eosin Y was dropped to corneal surface in batches. The location of the eosin Y diffused into the corneal surface was observed by cobalt blue light of a slit lamp. Digital corneal crosslinking device was used to selectively irradiate the local area of the cornea. The light's wavelength is 550 nm, the irradiation area is shown in FIG. 3, the light power is 1.2 mW/cm^2, irradiation time is 5 minutes.
During irradiation process, the eosin Y solution and superficial anesthesia were used to wash the corneal surface in phases. Antibiotic eye formulations were applied to the eye and corneal contact lens were used until the corneal epithelium was healed.
The epithelial tissue of the cornea was removed and a dextran solution of 200 g/L with 1 g/L riboflavin was dropped to corneal surface in batches. The location of the riboflavin diffused into the corneal surface was observed by cobalt blue light of a slit lamp. Digital corneal crosslinking device was used to selectively irradiate the local area of the cornea. The light's wavelength is 365 nm, the irradiation area is shown in FIG. 4, the light power is 1.2 mW/cm^2, irradiation time is 5 minutes.
The epithelial tissue of the cornea was kept intact and a dextran solution of 200 g/L with 1.5 g/L EDTA sodium and 1.5 g/L riboflavin was dropped to corneal surface in batches. The location of the riboflavin diffused into the corneal surface was observed by cobalt blue light of a slit lamp. Digital corneal crosslinking device was used to selectively irradiate the local area of the cornea.

On to `O=C([O-])c1ccccc1-c1c2cc(Br)c(=O)c(Br)c-2oc2c(Br)c([O-])c(Br)cc12.[Na+].[Na+]` [eosin Y], for which the corneal surface curvature result (Example 3: epithelium removed (5-9 mm), dextran solution 200 g/L with 1 g/L eosin Y, 550 nm, irradiation area of FIG. 3, 1.2 mW/cm^2, 5 minutes) is on record as “decreased”.

As for `Cc1cc2nc3c(=O)[nH]c(=O)nc-3n(C[C@H](O)[C@H](O)[C@H](O)COP(=O)(O)O)c2cc1C` [riboflavin sodium phosphate], the corneal surface curvature entry (Example 2: epithelium removed (7 mm), dextran solution 200 g/L with 1 g/L riboflavin sodium phosphate, 365 nm, irradiation area as example 1, 1.2 mW/cm^2, 5 minutes) is “the same as example 1”.

For `Cc1cc2nc3c(=O)[nH]c(=O)nc-3n(C[C@H](O)[C@H](O)[C@H](O)CO)c2cc1C` [riboflavin], the corneal surface curvature entry (Example 1: epithelium removed (7 mm), dextran solution 200 g/L with 1 g/L riboflavin, 365 nm, irradiation area of FIG. 2, 1.2 mW/cm^2, 5 minutes) is “increased”. In addition, where the note is “Example 4: epithelium removed, dextran solution 200 g/L with 1 g/L riboflavin, 365 nm, irradiation area of FIG. 4, 1.2 mW/cm^2, 5 minutes”, the corneal curvature entry is reported as “locally changed”. Further, the “result (corneal surface curvature)” value (Example 5: epithelium kept intact, dextran solution 200 g/L with 1.5 g/L EDTA sodium and 1.5 g/L riboflavin, 365 nm, irradiation area as example 1, 1.2 mW/cm^2, 10 minutes) is on record as “the same as example 1”.
